Laboratory results published in patent publication US20120232062A1, “AZAINDAZOLES TO TREAT FLAVIVIRIDAE VIRUS INFECTION” (EIGER BIOPHARMACEUTICALS, INC., priority 2009, published 2012).

Columns and labels:
FTase = FTase (Homo sapiens, UniProt P49356); conditions: cited from earlier work
HCV genotype 1b = experiment: HCV 1b replicon luciferase assay; format: cell-based; conditions: Hepatitis C virus, Huh-7, 48 h, Table 1; Huh7 HCV 1b replicon, luciferase reporter, 48 hours; read-out: 1b EC50
Method in brief: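 Huh7 cells carrying a genotype 1b replicon with stable luciferase reporter, 10k cells/well, were treated 48 h at 37 °C with 10-point 5-fold dilutions from 25 μM (0.1% DMSO), in duplicate. Replication was read as Steady-Glo luminescence.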

hERG channel = biological target: T1, hERG channel (Homo sapiens, UniProt Q12809); experiment: hERG channel assay; format: cell-based; conditions: CHO cell line expressing hERG, whole cell recordings
T1 construct: host or cells: CHO (Chinese Hamster Ovary), stably transfected
Protocol: The most common mechanism for these adverse events is the inhibition of one or more cardiac potassium channels, in particular hERG. This current is important for cardiac myocyte repolarization and is a common target for drugs that prolong the QT interval. Test articles in this study were therefore characterized to determine their ability to inhibit the hERG channel. Ion channel activity was measured using a stably transfected Chinese Hamster Ovary (CHO) cell line expressing the hERG mRNA. The pharmacology of this cloned channel expressed in the CHO cell line is very similar to that observed in native tissue.
Cells: AVIVA's CHO cell line, which stably expresses hERG channels, was used for the study. Cells were cultured in DMEM/F12 containing 10% FBS, 1% penicillin/streptomycin and 500 μg/ml G418. Before testing, cells were harvested using Accumax (Innovative Cell Technologies).
Solutions: For electrophysiological recordings, the following solutions were used. External Solution: 2 mM CaCl2; 2 mM MgCl2; 4 mM KCl; 150 mM NaCl; 10 mM Glucose; 10 mM HEPES; 310-320 mOsm; pH 7.4 (adjusted with 1M NaOH). Internal Solution: 140 mM KCl; 10 mM MgCl2; 6 mM EGTA; 5 mM HEPESNa; […]; 300-320 mOsm; pH 7.25 (adjusted with 1M KOH).
Electrophysiology: Whole cell recordings were performed using PX 7000A (Axon Instruments) with VIVA's SealChip™ technology. Cells were voltage clamped at a holding potential of −80 mV. The hERG current was then activated by a depolarizing step to −50 mV for 300 ms. This first step at −50 mV was used as a baseline for measuring peak amplitude of the tail current. Next, a voltage step to +20 mV was applied for 5 s to activate the channels. Finally a step back to −50 mV for 5 seconds removed activation and the deactivating tail current was recorded.
Compound Handling and Dilutions: All compounds were prepared from either 10 or 30 mM DMSO stock solutions. Solutions were mixed by sonication for 20 min, followed by vigorous vortexing. Prior to testing, compounds were diluted to test concentrations in glass vials using External Solution. Dilutions were prepared no longer than 20 min prior to use. Equal amounts of DMSO (0.1%) were present in all final dilutions.
Electrophysiology Procedures: After achieving whole cell configuration, cells were monitored for 90 s to assess stability and then washed with External Solution for 66 s. The voltage protocol described above was then applied to the cells every 12 s throughout the procedure. Only stable cells with recording parameters above threshold (see Quality Control section) were allowed to enter the drug addition procedure. External solution containing 0.1% DMSO (vehicle) was applied to the cells to establish a baseline. After allowing the current to stabilize for 3 to 5 min, test articles were applied. Test article solutions were added to cells in 4 separate additions. Cells were kept in test solution until effect of the test article reached steady state, to a maximum of 12 min. Next, 1 μM cisapride (positive control) was added. Finally, washout with External Solution was performed until the recovery current reached a steady state.
Data Analysis: Data analysis was performed using DataXpress (Axon Instruments), Clampfit (Axon Instruments) and Origin (Originlab Corporation) software.

T1 sequence (Q12809 whole entry): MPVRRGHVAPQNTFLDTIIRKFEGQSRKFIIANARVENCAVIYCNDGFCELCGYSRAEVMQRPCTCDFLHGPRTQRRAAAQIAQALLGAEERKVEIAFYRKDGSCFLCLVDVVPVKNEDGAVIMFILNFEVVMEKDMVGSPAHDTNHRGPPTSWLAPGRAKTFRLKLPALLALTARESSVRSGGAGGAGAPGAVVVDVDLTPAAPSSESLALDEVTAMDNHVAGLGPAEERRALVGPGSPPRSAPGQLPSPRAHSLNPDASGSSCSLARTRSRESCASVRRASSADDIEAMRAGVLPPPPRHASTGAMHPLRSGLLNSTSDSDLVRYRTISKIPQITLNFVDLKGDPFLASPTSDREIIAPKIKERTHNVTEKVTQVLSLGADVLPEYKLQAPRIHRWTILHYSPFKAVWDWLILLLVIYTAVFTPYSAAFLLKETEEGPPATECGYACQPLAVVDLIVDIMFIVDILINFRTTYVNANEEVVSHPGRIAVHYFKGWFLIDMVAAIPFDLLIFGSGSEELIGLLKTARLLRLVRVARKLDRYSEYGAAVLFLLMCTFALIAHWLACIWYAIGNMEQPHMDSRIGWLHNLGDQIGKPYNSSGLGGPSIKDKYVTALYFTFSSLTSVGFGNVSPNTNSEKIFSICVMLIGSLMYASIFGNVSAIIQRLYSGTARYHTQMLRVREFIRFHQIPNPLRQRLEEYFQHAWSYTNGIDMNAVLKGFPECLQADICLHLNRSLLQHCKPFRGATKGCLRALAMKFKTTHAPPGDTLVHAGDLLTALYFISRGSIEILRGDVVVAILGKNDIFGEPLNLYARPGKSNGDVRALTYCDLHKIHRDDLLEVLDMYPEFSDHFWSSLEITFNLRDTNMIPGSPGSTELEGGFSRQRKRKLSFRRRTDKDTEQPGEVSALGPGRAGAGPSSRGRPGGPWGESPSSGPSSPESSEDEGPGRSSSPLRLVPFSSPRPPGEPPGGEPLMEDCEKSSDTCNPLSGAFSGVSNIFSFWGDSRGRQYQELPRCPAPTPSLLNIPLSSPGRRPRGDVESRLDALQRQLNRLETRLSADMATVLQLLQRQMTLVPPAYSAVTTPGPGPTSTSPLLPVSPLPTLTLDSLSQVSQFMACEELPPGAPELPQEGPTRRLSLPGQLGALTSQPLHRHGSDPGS

| Structure (SMILES) | IC50 (FTase) | EC50 (HCV genotype 1b) | IC50 (hERG channel) | IC50 (hERG channel; human, CHO cells stably expressing hERG, pH 7.4) |
| --- | --- | --- | --- | --- |
| Cn1cncc1C(N)(c1ccc(Cl)cc1)c1ccc2c(c1)c(-c1cccc(Cl)c1)cc(=O)n2C (stereo not drawn) [Tipifarnib, 6-[Amino(4-chlorophenyl)-1-methyl-1H-imidazol-5-ylmethyl]-4-(3-chlorophenyl)-1-methyl-2(1H)-quinolinone] | 0.00086 µM |  |  |  |
| O=C(NCC1CCCNC1)c1n[nH]c2nc(N3CCCCCC3)ccc12 (stereo not drawn) [compound 703] |  | 2.2 µM | 8.8 µM |  |
| Cn1nc(C(=O)NC2CCN(CC3CCCCC3)CC2)c2ccc(N3CCCCCC3)nc21 [compound 987] |  | 0.55 µM | 0.88 µM |  |
| Cn1nc(N)c2ccc(N3CCCCCC3)nc21 [compound 658] |  | 0.4 to 2.2 µM | > 10 µM |  |
| O=C(NC1CCNCC1)c1n[nH]c2nc(N3CCCCCC3)ccc12 [compound 655] |  | 2.1 to 3.5 µM | 1.34 µM |  |
| O=C(NCC1CCNCC1)c1n[nH]c2nc(N3CCCCCC3)ccc12 [compound 702] |  | 3.4 µM | > 10 µM |  |
| CCC(CC)Oc1ccc2c(COCC3CCNCC3)nn(Cc3ccc(Cl)cc3)c2n1 [compound 756] |  | 2.2 µM |  | 10 µM |
| Cn1nc(C(=O)Nc2ccncc2)c2ccc(N3CCCCCC3)nc21 [compound 701] |  | 1.1 µM | > 10 µM |  |
| O=C(NC1CCNCC1)c1n[nH]c2nc(O)ccc12 [compound 744] |  | 1.5 µM | > 10 µM |  |
| O=C(Nc1n[nH]c2nc(N3CCCCCC3)ccc12)C1CCNCC1 [compound 680] |  | 4.1 µM | > 10 µM |  |
| CC(C)CN(C)c1ccc2c(C(=O)NC3CCNCC3)n[nH]c2n1 [compound 738] |  | 2.2 µM | > 10 µM |  |
| O=C(Nc1nn(Cc2ccc(Cl)cc2)c2nc(N3CCCCCC3)ccc12)C1CCCNC1 (stereo not drawn) [compound 745] |  | 3 µM | > 10 µM |  |
| Cn1nc(NC(=O)c2cccs2)c2ccc(N3CCCCCC3)nc21 [compound 659] |  | 1.8 to 4.9 µM | > 10 µM |  |
| O=C(NC1CCNCC1)c1n[nH]c2nc(OC3CCCCC3)ccc12 [compound 729] |  | 1.8 µM | > 10 µM |  |
